Reference: patent US20070105874A1, “Anti-Tumor Methods Using Multi Drug Resistance Independent Synthetic HSP90 Inhibitors” (Conforma Therapeutics Corporation, priority 2005, published 2007)

Experiments:
[1] = molecular target: T1, P-gp (Homo sapiens, UniProt P08183); assay: Rhodamine 123 retention (P-gp efflux inhibition) in H295R cells; type: cell-based; conditions: rhodamine 123, concentrations up to 10 mM
T1 construct: adrenocortical carcinoma, a tumor that naturally expresses P-gp; endogenous in cells; host or cells: H295R adrenal cortical carcinoma cells
Method: Rhodamine 123 level within cells was measured by flow cytometry as described in FIG. 9.

[2] = system: H295R adrenal cortical carcinoma cells; assay: MTS cytotoxicity assay in H295R adrenal cortical carcinoma cells; conditions: 5 days
Method: H295R cells were plated in 96-well plate at low confluence and were analyzed for IC50 as described in FIG. 2 with indicated compounds.
(§1) MTS assays measure the cytotoxicity of the compounds. […] Cells were seeded in 96 well plates at 2000 cells/well and allowed to adhere overnight in Dulbecco's modified Eagle's medium supplemented with 10% fetal bovine serum. The final culture volume was 100 μl. Viable cell number was determined by using the Celltiter 96 AQueous Non-radioactive Cell Proliferation Assay (Promega, Madison Wis.). The MTS/PMS (phenazine methosulfate) solution was mixed at a ratio of 20:1, and 20 μL was added per well to 100 μl of culture medium. After 2-4 hours, the formation of the formazan product was measured at 490 nm absorbance using a multiwell plate spectrophotometer. Background was determined by measuring the Abs 490 nm of cell culture medium and MTS-PMS in the absence of cells and was subtracted from all values. Percent viable cells was calculated as follows: % viable cells=(Abs at 490 nm treated cells/Abs at 490 nm untreated cells)×100

[3] = system: P-gp over-expressing MES SA Dx5 and NCI/ADR-Res cells; assay: MTS cytotoxicity assay in P-gp over-expressing versus non-expressing cell lines; type: cell-based
Method: The cell lines were plated in 96-well plate at 10-20% confluence and treated with increasing concentrations of indicated drug from 1 nM to 10 mM. 5 days later, the surviving fraction was estimated by MTS assay.
as §1

C=CCNC1=C2CC(C)CC(OC)C(O)C(C)/C=C(\C)C(OC(N)=O)C(OC)/C=C\C=C(/C)C(=O)NC(=CC1=O)C2=O (centres unmarked) [Compound 17-AAG, (4E,6Z,10E)-19-(allylamino)-13-hydroxy-8,14-dimethoxy-4,10,12,16-tetramethyl-3,20,22-trioxo-2-azabicyclo[16.3.1]docosa-1(21),4,6,10,18-pentaen-9-yl carbamate]
inhibitory effect on P-gp efflux activity [1]: No inhibitory effect
cytotoxic potency in adrenal cortical carcinoma [2]: more potent than CsA

CO[C@H]1/C=C\C=C(/C)C(=O)NC2=CC(=O)C(NCCN(C)C)=C(C[C@@H](C)C[C@H](OC)[C@H](O)[C@@H](C)/C=C(\C)[C@@H]1OC(N)=O)C2=O [Compound 17-DMAG, (4E,6Z,8S,9S,10E,12S,13R,14S,16R)-19-(2-(dimethylamino)ethylamino)-13-hydroxy-8,14-dimethoxy-4,10,12,16-tetramethyl-3,20,22-trioxo-2-azabicyclo[16.3.1]docosa-1(21),4,6,10,18-pentaen-9-yl carbamate]
P-gp substrate status ([3]; cytotoxicity in cell lines expressing P-gp or MRP to various extent): P-gp substrates
cytotoxic potency in adrenal cortical carcinoma [2]: weak

COc1c(C)cnc(Cn2cc(C#CCCC(N)=O)c3c(Cl)nc(N)nc32)c1C [Compound XI, 5-(2-amino-4-chloro-7-((4-methoxy-3,5-dimethylpyridin-2-yl)methyl)-7H-pyrrolo[2,3-d]pyrimidin-5-yl)pent-4-ynamide]
increase of IC50 in P-gp+++ lines ([3]; P-gp+++ lines): 10-20 fold
